Test results: US20120071475A1, “UREA DERIVATIVES HAVING PI3K-INHIBITING ACTIVITY” (SHIONOGI & CO., LTD., priority 2009, published 2012)

Tests used:
CYP3A4 = target: T1, CYP3A4 (Homo sapiens, UniProt P08684); experiment: CYP3A4 fluorescence MBI test; assay type: in vitro ADME; settings: difference in IC50 with 0 or 30 minutes pre-reaction; CYP3A4 expressed in E. coli, substrate 7-BFC
T1 construct: host or cells: E. coli
Experimental: The CYP3A4 fluorescence MBI test is a test to examine the enhancement of CYP3A4 inhibition of a compound by a metabolic reaction. The test was performed using as an index, a reaction to produce a metabolite 7-hydroxytrifluoromethylcoumarin (HFC) which emits fluorescence, in which CYP3A4 expressed in E. coli was used as an enzyme and 7-benzyloxytrifluoromethylcoumarin (7-BFC) is debenzylated by CYP3A4 enzyme.
The reaction conditions are as follows: substrate: 5.6 μmol/L 7-BFC; pre-reaction time; 0 or 30 minutes; reaction time: 15 minutes; reaction temperature: 25° C. (room temperature); content of CYP3A4 (an enzyme expressed in E. coli): […] at the time of a pre-reaction and […] (when diluted 10 times) at the time of a reaction; the concentrations of a test drug: 0.625, 1.25, 2.5, 5, 10, and 20 μmol/L (6 points).
In a 96-well plate, an enzyme solution and a test drug solution were added as a pre-reaction solution into K-Pi buffer solution (pH 7.4) in the aforementioned ratio. A portion thereof was transferred to another 96-well plate to be diluted ten times with a substrate and a K-Pi buffer solution. A coenzyme, NADPH, was then added to start a reaction, which is the index (this is without a pre-reaction). After reacting for a predetermined time, 4:1 of acetonitrile: 0.5 mol/L Tris (trishydroxyaminomethane) was added to quench the reaction. To the remaining pre-reaction solution, NADPH was added to start a pre-reaction (this is with a pre-reaction). After pre-reacting for a predetermined time, a portion thereof was transferred to another plate to be diluted ten times with a substrate and K-Pi buffer solution, and thereby the index reaction is started. After reacting for a predetermined time, 4:1 of acetonitrile:0.5 mol/L Tris (trishydroxyaminomethane) was added to quench the reaction. For each plate in which the index reaction was carried out, the fluorescence value of a metabolite 7-HFC was measured with a fluorescent plate reader (Ex=420 nm, Em=535 nm).
The case wherein only DMSO (a solvent which dissolved a drug) was added to a reaction system was defined as a control (100%). When a test drug solution was added, the remaining activity (%) at each concentration was calculated, and then IC50 was calculated with a concentration and an inhibition ratio by an inverse estimation using a logistic model. When the difference in IC50 value is 5 μmol/L or more, the compound is shown as (+). When 3 μmol/L or less, the compound is shown as (−).

hERG channel (IKr) = target: T2, hERG channel (IKr) (Homo sapiens, UniProt Q12809); experiment: hERG test (whole-cell patch-clamp, IKr in HEK293 cells); assay type: cell-based; settings: human, HEK293 cells expressing hERG channel, pH 7.4, inhibition of maximum tail current (IKr), compound 1 μM
T2 construct: expressed in transfected cells; host or cells: HEK293
From the text: For the purpose of risk evaluation of QT interval extension of electrocardiogram, the activity on delayed rectification K^+ current (IKr), which plays an important role in a cardiac ventricle repolarization process, was examined using the HEK293 cell that was made to express human ether-a-go-go related gene (hERG) channel.
Using an automatic patch-clamp system (PatchXpress 7000A, Axon Instruments Inc.), by a whole-cell patch-clamp method, after the cell was maintained at a membrane potential of −80 mV, IKr induced upon applying depolarizing stimulation of +50 mV for 2 seconds and further applying repolarizing stimulation of −50 mV for 2 seconds was recorded. After generated electric current became stable, a test substance dissolved at an intended concentration in extracellular fluid (137 mmol/L NaCl, 4 mmol/L KCl, 1.8 mmol/L CaCl2.2H2O, 1 mmol/L MgCl2.6H2O, 10 mmol/L glucose, 10 mmol/L HEPES (4-(2-hydroxyethyl)-1-piperazineethanesulfonic acid), pH=7.4) was applied to the cell for 10 minutes under room temperature condition. From the obtained IKr, the absolute value of the maximum tail current was measured using analysis software (DataXpress ver. 1, Molecular Devices Corporation) and the value of the electric current in a maintained membrane potential as baseline. Moreover, an inhibition ratio for the maximum tail current prior to the application of the test substance was calculated and then compared with a group of media-application (0.1% dimethylsulfoxide solution) to evaluate influence of the test substance on IKr.

PI3Kγ [1] = target: T3, PI3Kγ (Homo sapiens, UniProt P48736); experiment: PI3Kγ inhibitory activity (PI3-kinase HTRF assay, inhibition ratio); assay type: biochemical; settings: 0.5 h, compound at 10 μmol/L; read-out: PI3Kg Inhibition Ratio % (10 μM)
Experimental: For each compound synthesized in the above Examples, PI3Kγ inhibitory activity was measured.
The PI3Kγ inhibitory activity of a compound was evaluated using PI3-kinase HTRF™ assay (Millipore) according to the following procedure:
To each well of a testing plate, 5 μL of a compound solution containing 10% DMSO (40 μmol/L as the concentration of the compound), 5 μL of a substrate solution (40 μmol/L phosphatidylinositol (4,5)-bisphosphate, 20 mmol/L MgCl2, 10 mmol/L DTT), and 5 μL of an enzyme solution (80 μg/mL PI-3 kinase y, 10 mmol/L MgCl2, 5 mmol/L DTT) were added, and then allowed to stand for 10 minutes.
Then, 5 μL of a reaction solution (40 μmol/L ATP, 10 mmol/L MgCl2, 5 mmol/L DTT) was added thereto. After reacting for 30 minutes at room temperature, 5 μL of a solution containing EDTA and biotinylated phosphatidylinositol (3,4,5)-triphosphate was added to quench the reaction.
5 μL of a detection reagent containing a europium-labeled anti-GST antibody, the GST-tagged PH domain, and allophycocyanin-labeled streptavidin was added thereto. After 18 hours, HTRF (excitation wavelength: 330 nm, measured wavelengths: 620 nm and 665 nm) was measured.
HTRF ratio was defined as the value obtained by dividing the amount of fluorescence obtained at the measured wavelength 665 nm by the amount of fluorescence obtained at 620 nm. The HTRF ratio in the absence of a compound was defined as 100% activity and the HTRF ratio in the absence of PI-3 kinase y was defined as 0% activity to calculate an inhibition ratio, which was defined as the PI3Kγ inhibitory activity of a compound at 10 μmol/L.

[2] = Metabolic stability test (pooled human liver microsome); assay type: in vitro ADME; settings: percentage of test compound remained after 30 minutes, pooled human liver microsome 0.5 mg protein/mL, 1 mmol/L NADPH, 37° C., compound 0.5 μM
Experimental: After a subject compound was reacted for a certain time using a pooled human liver microsome commercially available, a reacted sample and an unreacted sample are compared to calculate a survival ratio, and then the degree of metabolism in the liver was evaluated.
0.2 mL of a buffer solution (50 mmol/L of Tris-HCl in pH 7.4, 150 mmol/L of potassium chloride, and 10 mmol/L of magnesium chloride) containing a human liver microsome of 0.5 mg protein/mL was reacted in the presence of 1 mmol/L NADPH at 37° C. for 0 or 30 minutes (oxidative reaction). After reacting, 50 μL of the reaction solution was added to 100 μL of a solution of methanol/acetonitrile (1/1 (v/v)), mixed, and then centrifuged at 3000 rpm for 15 minutes. The test compound in the supernatant was quantitated with LC/MS/MS. The amount of the compound at a reaction time of 0 minute was defined as 100% and, based on that, the percentage of the test compound remained after reacting for 30 minutes was calculated.

PI3Kγ [3] = target: T3, PI3Kγ; experiment: PI3Kγ inhibitory activity (Ki value); assay type: biochemical; settings: read-out: PI3Kγ Ki value
Experimental: The PI3Kγ inhibitory activity (Ki value) of a compound was evaluated according to the following procedure:
5 μL of a compound solution containing 10% DMSO and […] of a compound was changed to 5 μL of a compound solution containing 10% DMSO and either 200, 64, 20, 6.4, 2, 0.64, or 0.20 μmol/L of the compound (optionally, this is diluted to a lower concentration). Using a method similar to the method for measuring PI3Kγ inhibitory activity, inhibition ratios of PI3Kγ were measured in the presence of the compound at 50, 16, 5, 1.6, 0.5, 0.16, and 0.05 μmol/L (optionally, a lower concentration). Then an IC50 value was calculated by a logistic approximation method or the linear regression method using two concentrations that cross 50% inhibition. Separately, the ATP concentration in the reaction solution (40 μmol/L ATP, 10 mmol/L MgCl2, 5 mmol/L DTT) at the time of the start of a reaction in the absence of the compound was changed to 80, 40, 20, 10, 5, 2.5, 1.25, or 0.625 μmol/L. Then, HTRF ratios were measured by a similar method. The value obtained by subtracting the HTRF ratio at each ATP concentration from the HTRF ratio in the absence of PI-3 kinase y was defined as the value obtained by multiplying reaction rate (v) at each ATP concentration with a constant. The Michaelis-Menten constant Km was then calculated by the Lineweaver-Burk plot method. The Ki value of a compound was calculated by the following formula wherein “μM” denotes “μmol/L.”
Ki value ═IC50 value/(1+test ATP concentration (μM)/Km (μM))

T2 sequence (Q12809 whole entry): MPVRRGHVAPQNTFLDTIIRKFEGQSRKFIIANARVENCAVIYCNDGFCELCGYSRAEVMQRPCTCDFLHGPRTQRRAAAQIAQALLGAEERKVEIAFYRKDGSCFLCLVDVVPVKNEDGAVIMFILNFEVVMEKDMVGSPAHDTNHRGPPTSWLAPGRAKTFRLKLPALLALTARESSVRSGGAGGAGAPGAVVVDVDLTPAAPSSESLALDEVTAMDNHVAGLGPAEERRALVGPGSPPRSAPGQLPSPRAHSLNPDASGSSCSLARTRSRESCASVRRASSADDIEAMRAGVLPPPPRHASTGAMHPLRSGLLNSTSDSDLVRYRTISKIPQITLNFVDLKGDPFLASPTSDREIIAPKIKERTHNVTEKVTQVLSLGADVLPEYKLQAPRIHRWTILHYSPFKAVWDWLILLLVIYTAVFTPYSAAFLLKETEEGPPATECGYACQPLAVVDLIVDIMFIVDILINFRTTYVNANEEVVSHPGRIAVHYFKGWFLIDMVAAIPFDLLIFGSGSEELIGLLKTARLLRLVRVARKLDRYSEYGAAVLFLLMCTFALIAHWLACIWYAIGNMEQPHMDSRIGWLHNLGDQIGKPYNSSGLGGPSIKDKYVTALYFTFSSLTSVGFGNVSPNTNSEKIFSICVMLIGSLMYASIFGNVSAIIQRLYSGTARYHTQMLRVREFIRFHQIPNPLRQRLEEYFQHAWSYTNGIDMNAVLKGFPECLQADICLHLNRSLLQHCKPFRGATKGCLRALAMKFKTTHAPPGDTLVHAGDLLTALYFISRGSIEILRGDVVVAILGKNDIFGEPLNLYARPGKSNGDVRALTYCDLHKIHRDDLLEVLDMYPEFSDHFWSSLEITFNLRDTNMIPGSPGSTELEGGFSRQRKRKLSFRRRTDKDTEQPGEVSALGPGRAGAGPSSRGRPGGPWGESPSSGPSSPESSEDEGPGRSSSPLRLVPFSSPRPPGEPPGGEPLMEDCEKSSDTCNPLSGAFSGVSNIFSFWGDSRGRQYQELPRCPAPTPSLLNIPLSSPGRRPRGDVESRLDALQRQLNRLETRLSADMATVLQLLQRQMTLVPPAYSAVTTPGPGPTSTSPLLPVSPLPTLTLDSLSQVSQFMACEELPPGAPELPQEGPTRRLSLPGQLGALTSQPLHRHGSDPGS
T1 sequence (P08684 whole entry): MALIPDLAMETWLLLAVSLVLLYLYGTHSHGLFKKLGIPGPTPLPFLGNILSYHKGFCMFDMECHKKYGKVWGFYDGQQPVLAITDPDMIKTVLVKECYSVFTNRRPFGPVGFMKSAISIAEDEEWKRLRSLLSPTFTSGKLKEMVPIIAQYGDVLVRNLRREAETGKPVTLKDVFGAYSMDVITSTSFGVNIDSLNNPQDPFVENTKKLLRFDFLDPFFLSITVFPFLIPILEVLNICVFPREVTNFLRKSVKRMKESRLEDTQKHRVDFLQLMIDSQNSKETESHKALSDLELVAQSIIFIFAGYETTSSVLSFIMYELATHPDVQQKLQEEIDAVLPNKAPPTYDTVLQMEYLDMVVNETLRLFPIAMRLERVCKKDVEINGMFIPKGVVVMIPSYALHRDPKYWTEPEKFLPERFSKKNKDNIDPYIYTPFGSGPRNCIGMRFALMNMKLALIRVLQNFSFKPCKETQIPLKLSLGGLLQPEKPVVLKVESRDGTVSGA
T3 sequence (P48736 whole entry, species assumed): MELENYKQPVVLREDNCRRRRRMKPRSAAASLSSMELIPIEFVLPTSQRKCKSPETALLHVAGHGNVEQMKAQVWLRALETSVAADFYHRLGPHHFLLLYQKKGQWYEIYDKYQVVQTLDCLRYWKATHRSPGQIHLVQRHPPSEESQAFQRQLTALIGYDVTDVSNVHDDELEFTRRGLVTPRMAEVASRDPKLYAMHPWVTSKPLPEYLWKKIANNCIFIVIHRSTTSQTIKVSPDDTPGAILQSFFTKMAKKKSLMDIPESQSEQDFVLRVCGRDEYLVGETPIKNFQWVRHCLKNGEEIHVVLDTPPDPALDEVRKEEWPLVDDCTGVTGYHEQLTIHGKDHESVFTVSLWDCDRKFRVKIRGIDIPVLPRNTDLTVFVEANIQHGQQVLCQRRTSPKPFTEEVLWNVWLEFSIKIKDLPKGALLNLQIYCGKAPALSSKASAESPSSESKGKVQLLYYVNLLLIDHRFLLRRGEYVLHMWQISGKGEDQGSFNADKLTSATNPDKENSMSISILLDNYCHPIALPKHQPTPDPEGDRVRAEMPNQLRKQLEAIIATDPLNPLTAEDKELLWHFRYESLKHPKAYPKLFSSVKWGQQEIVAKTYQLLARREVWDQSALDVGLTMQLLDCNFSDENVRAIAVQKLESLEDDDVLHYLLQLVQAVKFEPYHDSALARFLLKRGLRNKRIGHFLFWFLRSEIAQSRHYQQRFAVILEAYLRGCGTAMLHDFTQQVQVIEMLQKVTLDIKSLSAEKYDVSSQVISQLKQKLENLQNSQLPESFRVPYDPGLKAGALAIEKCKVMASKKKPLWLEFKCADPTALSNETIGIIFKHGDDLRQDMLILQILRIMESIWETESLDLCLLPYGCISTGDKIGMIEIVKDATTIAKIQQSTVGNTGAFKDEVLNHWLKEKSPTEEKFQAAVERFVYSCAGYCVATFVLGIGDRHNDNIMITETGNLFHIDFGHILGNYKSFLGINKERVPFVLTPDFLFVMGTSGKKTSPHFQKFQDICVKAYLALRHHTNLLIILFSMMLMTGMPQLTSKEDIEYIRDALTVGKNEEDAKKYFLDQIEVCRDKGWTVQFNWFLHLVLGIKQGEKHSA

## COc1nc(Cl)cc(N2CCc3nc(NC(=O)Nc4ccccc4C(=O)NC(C)C)sc3C2)n1 [Compound I-53]
CYP3A4
  MBI: (−) (When 3 μmol/L or less, the compound is shown as (−))
hERG channel (IKr)
  inhibition at 10 min, 1 µM: 5.1%

## CCNC(=O)c1ccncc1NC(=O)Nc1nc2c(s1)CN(c1cc(Cl)nc(OC)n1)CC2 [Compound I-92]
hERG channel (IKr)
  inhibition at 10 min, 1 µM: 2.4%

## CCCCc1ccccc1NC(=O)Nc1nc2c(s1)CN(c1cc(OC)nc(OC)n1)CC2 [Compound I-150]
hERG channel (IKr)
  inhibition at 10 min, 1 µM: 3%

## COc1nc(N(C)C)cc(N2CCc3nc(NC(=O)Nc4ccccc4C(=O)NC(C)C)sc3C2)n1 [Compound I-41]
hERG channel (IKr)
  inhibition at 10 min, 1 µM: 5.6%

## COc1cc(N2CCc3nc(NC(=O)Nc4ccccc4C(=O)N[C@@H](C)CO)sc3C2)nc(OC)n1 [Compound I-101]
PI3Kγ [1]
  inhibition at 10 µM: ≥ 95%
[2]
  hLMS_ox(at 0.5 μM) %: 91.9%
hERG channel (IKr)
  inhibition at 10 min, 1 µM: 9.6%

## COc1cc(N2CCc3nc(NC(=O)Nc4ccccc4OCCC(C)C)sc3C2)nc(OC)n1 [Compound I-55]
hERG channel (IKr)
  inhibition at 10 min, 1 µM: 7.7%

## COc1cc(N2CCc3nc(NC(=O)NC4=C(C(=O)NC(C)C)CCC4)sc3C2)nc(OC)n1 [Compound I-29]
PI3Kγ [1]
  inhibition at 10 µM: ≥ 95%
CYP3A4
  MBI: (−) (When 3 μmol/L or less, the compound is shown as (−))
hERG channel (IKr)
  inhibition at 10 min, 1 µM: 8.7%

## CCNC(=O)c1ccccc1NC(=O)Nc1nc2c(s1)CN(c1cc(Cl)nc(OC)n1)CC2 [Compound I-93]
PI3Kγ [1]
  inhibition at 10 µM: ≥ 95%
CYP3A4
  MBI: (−) (When 3 μmol/L or less, the compound is shown as (−))
hERG channel (IKr)
  inhibition at 10 min, 1 µM: 6.8%

## COc1cc(N2CCc3nc(NC(=O)Nc4ccccc4C(=O)NC4CC4)sc3C2)nc(OC)n1 [Compound I-16]
PI3Kγ [1]
  inhibition at 10 µM: 92%
hERG channel (IKr)
  inhibition at 10 min, 1 µM: 9.3%

## CCNC(=O)c1ccccc1NC(=O)Nc1nc2c(s1)CN(c1cc(OC)nc(OC)n1)CC2 [Compound I-57]
[2]
  hLMS_ox(at 0.5 μM) %: 83.5%
CYP3A4
  MBI: (−) (When 3 μmol/L or less, the compound is shown as (−))
hERG channel (IKr)
  inhibition at 10 min, 1 µM: 5.3%

## COc1nccc(N2CCc3nc(NC(=O)Nc4ccccc4C(=O)NC(C)C)sc3C2)n1 [Compound I-95]
PI3Kγ [1]
  inhibition at 10 µM: ≥ 95%
hERG channel (IKr)
  inhibition at 10 min, 1 µM: 3.7%

## CCNC(=O)c1ccncc1NC(=O)Nc1nc2c(s1)CN(c1cc(OC)nc(OC)n1)CC2 [Compound I-94]
PI3Kγ [1]
  inhibition at 10 µM: ≥ 95%
CYP3A4
  MBI: (−) (When 3 μmol/L or less, the compound is shown as (−))
hERG channel (IKr)
  inhibition at 10 min, 1 µM: 6.8%

## COc1cncc(-c2ccc3nc(NC(=O)Nc4ccccc4C(=O)NC(C)C)cn3n2)c1 [Compound I-111]
CYP3A4
  MBI: (−) (When 3 μmol/L or less, the compound is shown as (−))
hERG channel (IKr)
  inhibition at 10 min, 1 µM: 2.4%

## COc1cc(N2CCc3nc(NC(=O)Nc4ccccc4C(=O)N[C@H](C)CO)sc3C2)nc(OC)n1 [Compound I-102]
PI3Kγ [1]
  inhibition at 10 µM: ≥ 95%
[2]
  hLMS_ox(at 0.5 μM) %: 84.2%
hERG channel (IKr)
  inhibition at 10 min, 1 µM: 8.8%

## COc1cc(N2CCc3nc(NC(=O)Nc4ccccc4OC(C)C)sc3C2)nc(OC)n1 [Compound I-48]
hERG channel (IKr)
  inhibition at 10 min, 1 µM: 3.2%

## COc1cncc(-c2cc(NC(=O)Nc3ccccc3OCCC(C)C)nn2C)c1 [Compound I-221]
PI3Kγ [1]
  inhibition at 10 µM: ≥ 95%
PI3Kγ [3]
  Ki: 680 nM

## COc1cc(N2CCc3nc(NC(=O)Nc4ccccc4C(=O)NC(C)C)sc3C2)cnc1OC [Compound I-80]
[2]
  hLMS_ox(at 0.5 μM) %: 82.1%
hERG channel (IKr)
  inhibition at 10 min, 1 µM: 5.5%

## Cc1nc(NC(=O)Nc2ccccc2OCCC(C)C)sc1-c1csc(S(=O)(=O)N(C)CCN(C)C)c1 [Compound I-192]
PI3Kγ [1]
  inhibition at 10 µM: 94%
PI3Kγ [3]
  Ki: 480 nM
